Measured values published in ChEMBL document CHEMBL1201862, “PubChem BioAssay data set” (2004).
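Exposure lasted 48 hours, with cells grown in 96-well plates and compounds tested at five concentrations. At the GI50, growth is halved.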 Calls of active or inactive are those of the source. Rule as the data show it: active = GI50 up to about 1.1 µM and inactive = higher.

Experiments:
Assay in all cases: inhibition of tumour cell growth, NCI panel, 48 h
COLO 205 = system: COLO 205
OVCAR-5 = system: OVCAR-5
HCC 2998 = system: HCC 2998
SN12C = system: SN12C
UACC-62 = system: UACC-62
UO-31 = system: UO-31
MDA-N = system: MDA-N
MDA-MB-231 = system: MDA-MB-231
NCI-H23 = system: NCI-H23
OVCAR-4 = system: OVCAR-4
MOLT-4 = system: MOLT-4
KM12 = system: KM12
NCI-H460 = system: NCI-H460
BT-549 = system: BT-549
SNB-75 = system: SNB-75
786-0 = system: 786-0
RXF 393 = system: RXF 393
SNB-19 = system: SNB-19
SF-539 = system: SF-539
ACHN = system: ACHN

Row | SMILES | GI50 (COLO 205) | GI50 (OVCAR-5) | GI50 (HCC 2998) | GI50 (SN12C) | GI50 (UACC-62) | GI50 (UO-31) | GI50 (MDA-N) | GI50 (MDA-MB-231) | GI50 (NCI-H23) | GI50 (OVCAR-4) | GI50 (MOLT-4) | GI50 (KM12) | GI50 (NCI-H460) | GI50 (BT-549) | GI50 (SNB-75) | GI50 (786-0) | GI50 (RXF 393) | GI50 (SNB-19) | GI50 (SF-539) | GI50 (ACHN)
1 | COC1=CC(=O)c2c(ccc3ncnc(N)c23)C1=O | 3.58 µM (inactive) | 2 µM (inactive) | 6.03 µM (inactive) | 1.87 µM (inactive) | 1.81 µM (inactive) | 2.31 µM (inactive) | 0.288 µM (active) | 1.19 µM (inactive) | 1.54 µM (inactive) | 0.561 µM (active) | 0.573 µM (active) | 4.41 µM (inactive) | 4.29 µM (inactive) | 1.79 µM (inactive) | 3.57 µM (inactive) | 1.78 µM (inactive) | 1.79 µM (inactive) | 2.38 µM (inactive) | 1.61 µM (inactive) | 1.57 µM (inactive)
2 | COC(=O)c1ccc2c(O)c(O)ccc2c1 | 13.6 µM (inactive) | 19.2 µM (inactive) | 15.1 µM (inactive) | 9.14 µM (inactive) | 15.9 µM (inactive) | 20.7 µM (inactive) | 1.74 µM (inactive) | 6.56 µM (inactive) | 5.28 µM (inactive) | 14.6 µM (inactive) | 4.81 µM (inactive) | 17.1 µM (inactive) | 19.9 µM (inactive) | 12.5 µM (inactive) | 12.8 µM (inactive) | 15.6 µM (inactive) | 17.6 µM (inactive) | 14.4 µM (inactive) | 19.1 µM (inactive) | 17.1 µM (inactive)
3 | O/N=C1\SC(=N\O)/C(=N/O)S\C1=N/O | > 100 µM (inactive) | > 100 µM (inactive) | > 100 µM (inactive) | > 100 µM (inactive) | 94.8 µM (inactive) | 87.5 µM (inactive) | 73.8 µM (inactive) | > 100 µM (inactive) | 76.6 µM (inactive) | > 100 µM (inactive) | > 100 µM (inactive) | 79.4 µM (inactive) | > 100 µM (inactive) | > 100 µM (inactive) | > 100 µM (inactive) | > 100 µM (inactive) | > 100 µM (inactive) | > 100 µM (inactive) | > 100 µM (inactive) | > 100 µM (inactive)
4 | C(=N\CCCN1CCN(CCC/N=C/c2cccc3ccccc23)CC1)/c1cccc2ccccc12 | > 100 µM (inactive) | > 100 µM (inactive) | > 100 µM (inactive) | > 100 µM (inactive) | 84.7 µM (inactive) | 48.3 µM (inactive) | 20 µM (inactive) | > 100 µM (inactive) | 90.8 µM (inactive) | > 100 µM (inactive) | 39.4 µM (inactive) | > 100 µM (inactive) | > 100 µM (inactive) | 22.8 µM (inactive) | 29.9 µM (inactive) | > 100 µM (inactive) | 10.8 µM (inactive) | 60.7 µM (inactive) | > 100 µM (inactive) | > 100 µM (inactive)
5 | CC(Oc1ccccc1)C(=O)NN (stereo not given) | > 100 µM (inactive) | > 100 µM (inactive) | > 100 µM (inactive) | > 100 µM (inactive) | > 100 µM (inactive) | > 100 µM (inactive) | > 100 µM (inactive) | 66.8 µM (inactive) | > 100 µM (inactive) | > 100 µM (inactive) | > 100 µM (inactive) | > 100 µM (inactive) | > 100 µM (inactive) | > 100 µM (inactive) | > 100 µM (inactive) | > 100 µM (inactive) | > 100 µM (inactive) | > 100 µM (inactive) | > 100 µM (inactive) | > 100 µM (inactive)
6 | CC(=O)Nc1ccc(CNc2cc(=O)[nH]c(=O)[nH]2)cc1 | > 100 µM (inactive) | > 100 µM (inactive) | > 100 µM (inactive) | > 100 µM (inactive) | > 100 µM (inactive) | > 100 µM (inactive) | > 100 µM (inactive) | > 100 µM (inactive) | > 100 µM (inactive) | > 100 µM (inactive) | > 100 µM (inactive) | > 100 µM (inactive) | > 100 µM (inactive) | > 100 µM (inactive) | > 100 µM (inactive) | > 100 µM (inactive) | > 100 µM (inactive) | > 100 µM (inactive) | > 100 µM (inactive) | > 100 µM (inactive)
7 | CCCCC1NC=Nc2c1ccc1c2[nH]c2ccccc21 (stereo not given) | 1.79 µM (inactive) | 4.63 µM (inactive) | 1.71 µM (inactive) | 2.89 µM (inactive) | 4.27 µM (inactive) | 10.3 µM (inactive) | 1.75 µM (inactive) | 1.73 µM (inactive) | 1.73 µM (inactive) | 2.7 µM (inactive) | 2.05 µM (inactive) | 5.82 µM (inactive) | 2.17 µM (inactive) | 2.02 µM (inactive) | 4.02 µM (inactive) | 1.79 µM (inactive) | 0.713 µM (active) | 4.58 µM (inactive) | 3.05 µM (inactive) | 3.61 µM (inactive)
8 | CC1(C)CCCC2CC2CCC(C)(C)C1=O (stereo not given) | 18.5 µM (inactive) | 46.5 µM (inactive) | 0.242 µM (active) | 71 µM (inactive) | > 100 µM (inactive) | > 100 µM (inactive) | 29.5 µM (inactive) | 82.4 µM (inactive) | > 100 µM (inactive) | > 100 µM (inactive) | 29.2 µM (inactive) | 56.2 µM (inactive) | 34.8 µM (inactive) | > 100 µM (inactive) | 71 µM (inactive) | 28.8 µM (inactive) | 27.4 µM (inactive) | > 100 µM (inactive) | > 100 µM (inactive) | > 100 µM (inactive)
9 | CCCCNC(=O)c1cc2c(cc1Cl)Sc1nccn1S2(=O)=O | 60.7 µM (inactive) | > 100 µM (inactive) | > 100 µM (inactive) | > 100 µM (inactive) | 86.5 µM (inactive) | > 100 µM (inactive) | 61.4 µM (inactive) | > 100 µM (inactive) | > 100 µM (inactive) | 43.7 µM (inactive) | 79.6 µM (inactive) | > 100 µM (inactive) | 44.3 µM (inactive) | 78 µM (inactive) | 17.5 µM (inactive) | 55.6 µM (inactive) | 95.9 µM (inactive) | > 100 µM (inactive) | > 100 µM (inactive) | 82 µM (inactive)
10 | NC(=O)C1=C(O)C[C@@H]2CC3Cc4cccc(O)c4C(=O)C3=C(O)[C@]2(O)C1=O (stereo not given in full) | 1.63 µM (inactive) | 0.449 µM (active) | 3.1 µM (inactive) | 3.01 µM (inactive) | 2.15 µM (inactive) | 2.9 µM (inactive) | 2.9 µM (inactive) | 2.78 µM (inactive) | 1.85 µM (inactive) | 10.7 µM (inactive) | 1.61 µM (inactive) | 9.55 µM (inactive) | 1.56 µM (inactive) | 1.87 µM (inactive) | 2.43 µM (inactive) | 3.24 µM (inactive) | 1.51 µM (inactive) | 1.88 µM (inactive) | 1.64 µM (inactive) | 1.07 µM (active)
11 | CO/C(N)=C(C#N)/N=C/c1ccsc1 | 36.6 µM (inactive) | > 100 µM (inactive) | > 100 µM (inactive) | > 100 µM (inactive) | 33.4 µM (inactive) | > 100 µM (inactive) | 28.5 µM (inactive) | 32.7 µM (inactive) | 37.3 µM (inactive) | > 100 µM (inactive) | 47.6 µM (inactive) | 60.7 µM (inactive) | > 100 µM (inactive) | 20.4 µM (inactive) | 56 µM (inactive) | 23.9 µM (inactive) | 31.8 µM (inactive) | > 100 µM (inactive) | 26.2 µM (inactive) | > 100 µM (inactive)
12 | CC(=O)NCCCCNCCCNC(C)=O | > 100 µM (inactive) | > 100 µM (inactive) | > 100 µM (inactive) | > 100 µM (inactive) | > 100 µM (inactive) | > 100 µM (inactive) | > 100 µM (inactive) | > 100 µM (inactive) | > 100 µM (inactive) | > 100 µM (inactive) | > 100 µM (inactive) | > 100 µM (inactive) | > 100 µM (inactive) | > 100 µM (inactive) | > 100 µM (inactive) | > 100 µM (inactive) | > 100 µM (inactive) | > 100 µM (inactive) | > 100 µM (inactive) | > 100 µM (inactive)
